Data on six molecules can be found in the supplement of paper PMC12076712.

Each structure is given as a SMILES string. Some results are limits rather than exact numbers.

Broadly, the pIC50 is −log10 of the IC50, conventionally taken in molar units.

Holding throughout (test): pIC50, kinobeads binding competition
One test deals with T1, MERTK (UniProt Q12866).
T1 sequence (whole entry): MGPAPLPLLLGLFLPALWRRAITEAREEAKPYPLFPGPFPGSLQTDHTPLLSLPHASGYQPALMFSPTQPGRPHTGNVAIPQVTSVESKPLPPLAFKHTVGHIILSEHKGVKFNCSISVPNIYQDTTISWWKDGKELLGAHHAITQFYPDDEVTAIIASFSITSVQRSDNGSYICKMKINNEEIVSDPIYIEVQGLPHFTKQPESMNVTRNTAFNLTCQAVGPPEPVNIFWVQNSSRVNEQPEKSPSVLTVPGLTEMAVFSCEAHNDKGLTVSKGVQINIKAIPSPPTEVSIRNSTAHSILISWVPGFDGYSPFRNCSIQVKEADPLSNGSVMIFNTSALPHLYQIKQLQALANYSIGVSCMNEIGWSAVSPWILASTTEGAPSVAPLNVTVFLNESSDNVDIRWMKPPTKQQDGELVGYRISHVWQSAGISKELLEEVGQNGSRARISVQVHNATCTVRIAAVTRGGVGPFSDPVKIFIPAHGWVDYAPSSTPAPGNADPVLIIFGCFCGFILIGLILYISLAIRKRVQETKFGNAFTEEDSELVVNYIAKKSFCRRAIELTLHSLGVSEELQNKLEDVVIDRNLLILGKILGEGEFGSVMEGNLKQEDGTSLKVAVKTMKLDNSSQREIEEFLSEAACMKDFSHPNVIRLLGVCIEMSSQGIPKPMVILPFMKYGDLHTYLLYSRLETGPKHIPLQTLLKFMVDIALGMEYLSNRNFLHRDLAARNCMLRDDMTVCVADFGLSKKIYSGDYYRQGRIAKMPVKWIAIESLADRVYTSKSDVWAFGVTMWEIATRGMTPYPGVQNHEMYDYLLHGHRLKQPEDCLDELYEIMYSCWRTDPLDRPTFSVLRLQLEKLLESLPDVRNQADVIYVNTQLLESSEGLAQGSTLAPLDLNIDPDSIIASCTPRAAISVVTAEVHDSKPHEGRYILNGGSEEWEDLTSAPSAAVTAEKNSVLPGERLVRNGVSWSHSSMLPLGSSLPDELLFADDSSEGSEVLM
A digest of the protocol:
(§1)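 Either living Jurkat cells (60 min at 37 °C, then lysis) or lysates (60 min at 4 °C) were treated with nine compound concentrations from a top of 30 μM, in 1:4 steps for cells and 1:5 steps for lysates. The lysates were from Jurkat cells or a 1:1:1:1 mix of HEK293, K-562, HepG2 and placenta. Kinobeads-bound proteins were digested and quantified by TMT10 LC-MS/MS. pIC50 was calculated by logistic dose-response fitting (R drc package) of fold changes relative to vehicle, in biological duplicates.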

The target of a further test is T2, EPHB4 (UniProt P54760).
T2 sequence (whole entry): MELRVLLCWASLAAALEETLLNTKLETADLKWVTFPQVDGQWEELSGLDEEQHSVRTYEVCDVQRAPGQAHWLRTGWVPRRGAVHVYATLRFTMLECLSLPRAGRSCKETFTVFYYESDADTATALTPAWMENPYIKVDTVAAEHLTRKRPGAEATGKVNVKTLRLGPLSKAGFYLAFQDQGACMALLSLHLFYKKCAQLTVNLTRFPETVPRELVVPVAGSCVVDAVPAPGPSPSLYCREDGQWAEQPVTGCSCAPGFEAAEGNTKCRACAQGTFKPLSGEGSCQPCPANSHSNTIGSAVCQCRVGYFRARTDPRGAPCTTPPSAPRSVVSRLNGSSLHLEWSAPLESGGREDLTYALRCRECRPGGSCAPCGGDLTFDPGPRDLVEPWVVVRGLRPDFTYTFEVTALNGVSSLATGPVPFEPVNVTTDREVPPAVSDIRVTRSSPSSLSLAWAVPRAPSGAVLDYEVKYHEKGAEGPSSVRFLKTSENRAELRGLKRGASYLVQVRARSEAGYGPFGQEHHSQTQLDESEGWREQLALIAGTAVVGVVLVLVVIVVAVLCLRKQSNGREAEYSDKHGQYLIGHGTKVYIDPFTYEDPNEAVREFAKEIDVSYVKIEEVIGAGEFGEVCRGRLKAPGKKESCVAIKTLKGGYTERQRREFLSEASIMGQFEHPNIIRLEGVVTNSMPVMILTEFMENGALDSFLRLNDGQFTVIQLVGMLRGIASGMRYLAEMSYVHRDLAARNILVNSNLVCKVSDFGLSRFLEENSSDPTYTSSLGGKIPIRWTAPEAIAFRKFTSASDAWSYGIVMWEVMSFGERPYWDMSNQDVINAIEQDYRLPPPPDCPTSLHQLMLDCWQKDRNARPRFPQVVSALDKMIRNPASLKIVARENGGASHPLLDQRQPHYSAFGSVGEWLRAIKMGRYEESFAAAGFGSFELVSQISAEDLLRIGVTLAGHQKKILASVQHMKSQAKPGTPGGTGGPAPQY
The conditions noted are these: cell material: Lysate mix. A digest of the protocol:
as §1

Another test addresses TESK1 (UniProt Q15569). In a few lines: as §1

Chain of TESK1 (Q15569 whole entry, looked up): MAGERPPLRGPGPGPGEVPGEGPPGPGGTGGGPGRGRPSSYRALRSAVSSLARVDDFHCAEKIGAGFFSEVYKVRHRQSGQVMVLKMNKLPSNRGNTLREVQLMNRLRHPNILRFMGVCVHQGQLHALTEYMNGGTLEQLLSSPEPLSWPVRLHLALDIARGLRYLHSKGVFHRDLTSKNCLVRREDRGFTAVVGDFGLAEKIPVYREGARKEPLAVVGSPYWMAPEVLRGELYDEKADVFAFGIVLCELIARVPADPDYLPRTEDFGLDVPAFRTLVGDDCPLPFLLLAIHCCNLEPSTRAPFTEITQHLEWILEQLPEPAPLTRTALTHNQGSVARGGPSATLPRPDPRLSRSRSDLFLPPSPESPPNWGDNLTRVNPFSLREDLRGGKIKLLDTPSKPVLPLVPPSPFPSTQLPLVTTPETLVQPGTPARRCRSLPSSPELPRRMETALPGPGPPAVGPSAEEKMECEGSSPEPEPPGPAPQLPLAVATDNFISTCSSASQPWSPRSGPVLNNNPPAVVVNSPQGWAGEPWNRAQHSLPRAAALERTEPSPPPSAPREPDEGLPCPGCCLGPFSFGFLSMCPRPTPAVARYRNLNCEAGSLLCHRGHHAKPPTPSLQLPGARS

Turning to `O=C(NCCNC(=O)c1cc(Nc2cc(C3CC3)[nH]n2)nc(N2CCN(Cc3ccc(S(=O)(=O)F)cc3)CC2)n1)OC1CC/C=C/CCC1` (stereo not given), the pIC50 on MERTK (cell material: Jurkat cells) is 6.04; on MERTK (cell material: Jurkat lysate), under 4.52; on MERTK (cell material: Lysate mix), under 4.52; on EPHB4, under 4.52; on TESK1 (cell material: Jurkat cells), under 4.52; on TESK1 (cell material: Jurkat lysate), under 4.52. This molecule had a pIC50 at TESK1 (cell material: Lysate mix) of under 4.52.
With `Cc1cc(Nc2cc(C(=O)NCCNC(=O)OC3CC/C=C/CCC3)nc(N3CCN(Cc4ccc(S(=O)(=O)F)cc4)CC3)n2)n[nH]1` (stereo not given), the negative-log IC50 (pIC50) at MERTK (cell material: Lysate mix), at EPHB4 and on TESK1 (cell material: Lysate mix) was under 4.52 in each case.
For `CCNC(=O)c1cc(Nc2cc(C)[nH]n2)nc(N2CCN(Cc3ccc(S(=O)(=O)F)cc3)CC2)n1`, the pIC50 at MERTK (cell material: Lysate mix), on EPHB4 and on TESK1 (cell material: Lysate mix) was under 4.52 throughout.
Turning to `C#CCNC(=O)c1cc(Nc2cc(C3CC3)[nH]n2)nc(N2CCN(Cc3ccc(S(=O)(=O)F)cc3)CC2)n1`, the negative-log IC50 (pIC50) on MERTK (cell material: Jurkat cells) is 6.29; on MERTK (cell material: Jurkat lysate) it was under 4.52; at MERTK (cell material: Lysate mix), 4.84; at EPHB4 it was under 4.52; at TESK1 (cell material: Jurkat lysate), under 4.52; on TESK1 (cell material: Lysate mix), under 4.52.
For `C#CCNC(=O)c1cc(Nc2cc(C)[nH]n2)nc(N2CCN(Cc3ccc(S(=O)(=O)F)cc3)CC2)n1`, the pIC50 on MERTK (cell material: Lysate mix), at EPHB4 and at TESK1 (cell material: Lysate mix) was under 4.52 in each case.
In the case of `CCNC(=O)c1cc(Nc2cc(C3CC3)[nH]n2)nc(N2CCN(Cc3ccc(S(=O)(=O)F)cc3)CC2)n1`, the pIC50 at MERTK (cell material: Lysate mix) was 4.94; at EPHB4, under 4.52; at TESK1 (cell material: Lysate mix), under 4.52.
